Assay results as given in patent publication US11384063B2, “Modulators of estrogen receptor proteolysis and associated methods of use” (Arvinas Operations, Inc., priority 2017, dated 2022).

Experiments:
ERα [1] = biological target: T1, ERα (Homo sapiens, UniProt P03372); assay: ERE luciferase reporter gene assay in T47D-KBluc cells (target engagement); type: cell-based; design: T47D human breast cancer cells stably transfected with estrogen responsive element/promoter/luciferase reporter gene; host or cells: T47D-KBluc cells; conditions: 10% FBS, 24 hours, Table 2 VHL centric PROTACs, read-out: IC50
T1 sequence (P03372 1-595): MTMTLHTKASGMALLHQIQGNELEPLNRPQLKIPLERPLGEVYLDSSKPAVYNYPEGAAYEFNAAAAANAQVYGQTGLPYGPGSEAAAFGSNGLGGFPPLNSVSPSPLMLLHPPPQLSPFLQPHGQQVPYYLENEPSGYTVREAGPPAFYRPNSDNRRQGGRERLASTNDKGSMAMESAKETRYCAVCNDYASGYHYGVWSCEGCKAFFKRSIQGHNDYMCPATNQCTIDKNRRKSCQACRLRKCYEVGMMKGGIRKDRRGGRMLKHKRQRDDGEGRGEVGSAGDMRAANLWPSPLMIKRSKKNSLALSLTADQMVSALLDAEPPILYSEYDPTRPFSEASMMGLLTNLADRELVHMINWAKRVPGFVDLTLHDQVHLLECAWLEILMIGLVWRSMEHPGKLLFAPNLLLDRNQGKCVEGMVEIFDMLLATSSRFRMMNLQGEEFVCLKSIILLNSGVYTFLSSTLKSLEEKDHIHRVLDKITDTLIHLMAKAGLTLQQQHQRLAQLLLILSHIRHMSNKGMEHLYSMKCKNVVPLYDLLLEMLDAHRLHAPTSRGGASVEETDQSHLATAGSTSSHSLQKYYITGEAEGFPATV
Summary of the method: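 T47D-KBluc breast cancer cells, which carry a stable ERE-luciferase reporter, were grown in RPMI with 10% FBS (about 10 pM estrogen) and exposed to PROTACs for 24 h. The 12-point, 3-fold series ran from 300 nM to 2 pM. Luciferase was read after lysis, and IC50 was fitted from duplicates.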

ERα [2] = biological target: T1, ERα; assay: Estrogen receptor-alpha (ERα) degradation assay in MCF-7 cells using western blot; type: cell-based; design: assessed for their activity in degrading ERα in MCF-7 cells via western blot; endogenous in cells; host or cells: MCF7 cells; conditions: ER-alpha degradation, MCF7 cells, 3 days of incubation
Protocol: Compounds prepared in this application were also analyzed for the degradation of ERα in MCF7 and T47D cells.
Estrogen Receptor-Alpha (ERα) Degradation Assay in MCF-7 Cells Using Western Blot Method for Table 4.
The exemplary novel ERα degraders were assessed for their activity in degrading ERα in MCF-7 cells via western blot. The assay was carried out in the presence of 10% fetal bovine serum (FBS) or high percentage of human or mouse serum.
MCF7 cells were grown in DMEM/F12 with 10% fetal bovine serum and seeded at 24,000 cells per well in 100 μl into 96-well clear tissue culture plates. The following day, the cells were treated with PROTACs in a […] concentration curve with 100 nM being the top concentration and serial dilutions to make the other concentrations (30 nM, 10 nM, 3 nM, 1 nM, and 0.3 nM). At all concentrations, 0.01% DMSO is the final concentration in the well. The following day, the plates are aspirated, washed with 50 μl of cold PBS. The cells are lysed with 50 μl/well 4° C. Cell Lysis Buffer (Catalog #9803; Cell Signaling Technology, Danvers, Mass.) (20 mM Tris-HCL (pH 7.5), 150 mM NaCl, 1 mM […], 1 mM EGTA, 1% Triton, 2.5 mM sodium pyrophosphate, 1 mM B-glycerophosphate, 1 mM sodium vanadate, 1 ug/ml leupeptin). Lysates were clarified at 16,000×g for 10 minutes, and 2 μg of protein was subjected to SDS-PAGE analysis and followed by immunoblotting according to standard protocols. The antibodies used were ERα (Cell Signaling Technologies Catalog #8644), and Tubulin (Sigma Catalog #T9026; St. Louis, Mo.). Detection reagents were Clarity Western ECL substrate (Bio-Rad Catalog #170-5060; Hercules, Calif.).
Alternatively, MCF7 cells were grown in DMEM/F12 with 10% fetal bovine serum and seeded at 24,000 cells per well in 500 μl in 24-well clear tissue culture plates. The following day, the cells were treated with PROTACs in a 5-point concentration curve (100 nM, 33 nM, 11 nM, 3.7 nM, and 1.2 nM) in the presence of 0.01% DMSO. After 72 hours, the wells are aspirated and washed with 500 μl of PBS. The cells are lysed with 100 μl/well 4° C. Cell Lysis Buffer (Catalog #9803; Cell Signaling Technology, Danvers, M A) (20 mM Tris-HCL (pH 7.5), 150 mM NaCl, 1 mM Na2EDTA, 1 mM EGTA, 1% Triton, 2.5 mM sodium pyrophosphate, 1 mM B-glycerophosphate, 1 mM sodium vanadate, 1 ug/ml leupeptin). Lysates were clarified at 16,000×g for 10 minutes, and 2 μg of protein was subjected to SDS-PAGE analysis and followed by immunoblotting according to standard protocols. The antibodies used were ER(X (Cell Signaling Technologies Catalog #8644), and Tubulin (Sigma Catalog #T9026; St. Louis, Mo.). Detection reagents were Clarity Western ECL substrate (Bio-Rad Catalog #170-5060; Hercules, Calif.).

IC50 (ERα [1]) | DC50 (ERα [2]) | Dmax (ERα [2]) | Compound
2.7 nM | 1 to 10 nM | 50 to 75% | Cc1ncsc1-c1ccc(CNC(=O)[C@@H]2C[C@@H](O)CN2C(=O)C(c2cc(OCCN3CCN(CCOc4ccc(Oc5c(-c6ccc(Br)cc6)sc6cc(O)ccc56)cc4)CC3)no2)C(C)C)cc1 (stereo in doubt) [Compound 164, (2S,4R)-1-((S)-2-(3-(2-(4-(2-(4-((2-(4-bromophenyl)-6-hydroxybenzo[b]thiophen-3-yl)oxy)phenoxy)ethyl)piperazin-1-yl)ethoxy)isoxazol-5-yl)-3-methylbutanoyl)-4-hydroxy-N-(4-(4-methylthiazol-5-yl)benzyl)pyrrolidine-2-carboxamide]
0.6 nM | < 1 nM | > 75% | Cc1ncsc1-c1ccc([C@H](C)NC(=O)[C@@H]2C[C@@H](O)CN2C(=O)[C@@H](NC(=O)COCCOCCOCCOc2ccc(Oc3c(-c4ccc(F)cc4)sc4cc(O)ccc34)cc2)C(C)(C)C)cc1 [Compound 111, (2S,4R)-1-((S)-2-tert-butyl-14-(4-(2-(4-fluorophenyl)-6-hydroxybenzo[b]thiophen-3-yloxy)phenoxy)-4-oxo-6,9,12-trioxa-3-azatetradecane)-4-hydroxy-N—((S)-1-(4-(4-methylthiazol-5-yl)phenyl)ethyl)pyrrolidine-2-carboxamide]
3.3 nM | 1 to 10 nM | 50 to 75% | Cc1ncsc1-c1ccc(CNC(=O)[C@@H]2C[C@@H](O)CN2C(=O)[C@@H](NC(=O)COCCOC2CN(CCOc3ccc(Oc4c(-c5ccc(F)cc5)sc5cc(O)ccc45)cc3)C2)C(C)(C)C)cc1 [Compound 117, (2S,4R)-1-((S)-2-(2-(2-(1-(2-(4-(2-(4-fluorophenyl)-6-hydroxybenzo[b]thiophen-3-yloxy)phenoxy)ethyl)azetidin-3-yloxy)ethoxy)acetamido)-3,3-dimethylbutanoyl)-4-hydroxy-N-(4-(4-methylthiazol-5-yl)benzyl)pyrrolidine-2-carboxamide]
0.4 nM | < 1 nM | > 75% | Cc1ncsc1-c1ccc(CNC(=O)[C@@H]2C[C@@H](O)CN2C(=O)[C@@H](NC(=O)COCCN2CCN(CCOc3ccc(Oc4c(-c5ccc(F)cc5)sc5cc(O)ccc45)cc3)CC2)C(C)(C)C)cc1 [Compound 118, (2S,4R)-1-((S)-2-(2-(2-(4-(2-(4-((2-(4-fluorophenyl)-6-hydroxybenzo[b]thiophen-3-yl)oxy)phenoxy)ethyl)piperazin-1-yl)ethoxy)acetamido)-3,3-dimethylbutanoyl)-4-hydroxy-N-(4-(4-methylthiazol-5-yl)benzyl)pyrrolidine-2-carboxamide]
1.1 nM | 1 to 10 nM | > 75% | Cc1ncsc1-c1ccc([C@H](C)NC(=O)[C@@H]2C[C@@H](O)CN2C(=O)[C@@H](NC(=O)COCCOCCOCCOc2ccc(Oc3c(-c4ccc(Cl)cc4)sc4cc(O)ccc34)cc2)C(C)(C)C)cc1 [Compound 119, (2S,4R)-1-((S)-2-tert-butyl-14-(4-(2-(4-chlorophenyl)-6-hydroxybenzo[b]thiophen-3-yloxy)phenoxy)-4-oxo-6,9,12-trioxa-3-azatetradecane)-4-hydroxy-N-((S)-1-(4-(4-methylthiazol-5-yl)phenyl)ethyl)pyrrolidine-2-carboxamide]
1 nM | 1 to 10 nM | > 75% | Cc1ncsc1-c1ccc(CNC(=O)[C@@H]2C[C@@H](O)CN2C(=O)[C@@H](NC(=O)Cc2ccc(-c3ccn(CCOc4ccc(Oc5c(-c6ccc(F)cc6)sc6cc(O)ccc56)cc4)n3)cc2)C(C)(C)C)cc1 [Compound 121, (2S,4R)-1-[(2S)-2-[2-(4-[1-[2-(4-[[2-(4-fluorophenyl)-6-hydroxy-1-benzothiophen-3-yl]oxy]phenoxy)ethyl]-1H-pyrazol-3-yl]phenyl)acetamido]-3,3-dimethylbutanoyl]-4-hydroxy-N-[[4-(4-methyl-1,3-thiazol-5-yl)phenyl]methyl]pyrrolidine-2-carboxamide]
0.2 nM | < 1 nM | > 75% | Cc1ncsc1-c1ccc([C@H](C)NC(=O)[C@@H]2C[C@@H](O)CN2C(=O)[C@@H](NC(=O)COCCOCCOCCOc2ccc(Oc3c(-c4ccc(Br)cc4)sc4cc(O)ccc34)cc2)C(C)(C)C)cc1 [Compound 126, (2S,4R)-1-((S)-14-(4-(2-(4-bromophenyl)-6-hydroxybenzo[b]thiophen-3-yloxy)phenoxy)-2-tert-butyl-4-oxo-6,9,12-trioxa-3-azatetradecane)-4-hydroxy-N-((S)-1-(4-(4-methylthiazol-5-yl)phenyl)ethyl)pyrrolidine-2-carboxamide]
0.2 nM | < 1 nM | > 75% | Cc1ncoc1-c1ccc([C@H](C)NC(=O)[C@@H]2C[C@@H](O)CN2C(=O)[C@@H](NC(=O)COCCOCCOCCOc2ccc(Oc3c(-c4ccc(Br)cc4)sc4cc(O)ccc34)cc2)C(C)(C)C)cc1 [Compound 127, (2S,4R)-1-((S)-14-(4-(2-(4-bromophenyl)-6-hydroxybenzo[b]thiophen-3-yloxy)phenoxy)-2-tert-butyl-4-oxo-6,9,12-trioxa-3-azatetradecane)-4-hydroxy-N-((S)-1-(4-(4-methyloxazol-5-yl)phenyl)ethyl)pyrrolidine-2-carboxamide]
0.3 nM | < 1 nM | > 75% | Cc1ncsc1-c1ccc([C@H](C)NC(=O)[C@@H]2C[C@@H](O)CN2C(=O)[C@@H](NC(=O)COCCOCCN(C)CCOc2ccc(Oc3c(-c4ccc(F)cc4)sc4cc(O)ccc34)cc2)C(C)(C)C)cc1 [Compound 128, (2S,4R)-1-[(2S)-2-[1-(4[[2-(4-fluorophenyl)-6-hydroxy-1-benzothiophen-3-yl]oxy]phenyl)-4-methyl-1,7,10-trioxa-4-azadodecan-12-amido]-3,3-dimethylbutanoyl]-4-hydroxy-N-[(1S)-1-[4-(4-methyl-1,3-thiazol-5-yl)phenyl]ethyl]pyrrolidine-2-carboxamide]
1.4 nM | 1 to 10 nM | > 75% | C[C@H](NC(=O)[C@@H]1C[C@@H](O)CN1C(=O)[C@@H](NC(=O)COCCOCCN(C)CCOc1ccc(Oc2c(-c3ccc(F)cc3)sc3cc(O)ccc23)cc1)C(C)(C)C)c1ccc(Cl)cc1 [Compound 129]
